Test results published in ChEMBL document CHEMBL1201862, “PubChem BioAssay data set” (2004).
Activity calls are given as the source filed them.

What was measured:
[1] = target: T1, Calpain-2 catalytic subunit (Sus scrofa, UniProt P43367); test: pig calpain II inhibitor potency, dose response, biochemical, fluorogenic peptide substrate (AID 1420); type: functional
T1 sequence (P43367 whole entry): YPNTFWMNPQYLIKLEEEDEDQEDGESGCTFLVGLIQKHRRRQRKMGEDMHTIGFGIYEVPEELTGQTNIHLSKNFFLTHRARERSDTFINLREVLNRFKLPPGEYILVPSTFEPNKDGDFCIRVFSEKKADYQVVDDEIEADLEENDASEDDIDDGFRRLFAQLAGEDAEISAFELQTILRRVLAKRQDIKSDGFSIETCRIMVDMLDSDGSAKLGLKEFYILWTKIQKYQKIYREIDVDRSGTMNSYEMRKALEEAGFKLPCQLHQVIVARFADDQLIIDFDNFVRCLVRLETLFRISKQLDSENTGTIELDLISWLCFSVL

[2] = target: Inhibitor of nuclear factor kappa-B kinase subunit epsilon (Homo sapiens, UniProt Q14164); test: Navigating the Kinome. Panel member name: IKBKE; type: functional
[3] = target: Casein kinase I isoform alpha (Homo sapiens, UniProt P48729); type: functional
[4] = target: T2, Tyrosine-protein kinase JAK3 (Homo sapiens, UniProt P52333); type: functional
T2 sequence (P52333 whole entry): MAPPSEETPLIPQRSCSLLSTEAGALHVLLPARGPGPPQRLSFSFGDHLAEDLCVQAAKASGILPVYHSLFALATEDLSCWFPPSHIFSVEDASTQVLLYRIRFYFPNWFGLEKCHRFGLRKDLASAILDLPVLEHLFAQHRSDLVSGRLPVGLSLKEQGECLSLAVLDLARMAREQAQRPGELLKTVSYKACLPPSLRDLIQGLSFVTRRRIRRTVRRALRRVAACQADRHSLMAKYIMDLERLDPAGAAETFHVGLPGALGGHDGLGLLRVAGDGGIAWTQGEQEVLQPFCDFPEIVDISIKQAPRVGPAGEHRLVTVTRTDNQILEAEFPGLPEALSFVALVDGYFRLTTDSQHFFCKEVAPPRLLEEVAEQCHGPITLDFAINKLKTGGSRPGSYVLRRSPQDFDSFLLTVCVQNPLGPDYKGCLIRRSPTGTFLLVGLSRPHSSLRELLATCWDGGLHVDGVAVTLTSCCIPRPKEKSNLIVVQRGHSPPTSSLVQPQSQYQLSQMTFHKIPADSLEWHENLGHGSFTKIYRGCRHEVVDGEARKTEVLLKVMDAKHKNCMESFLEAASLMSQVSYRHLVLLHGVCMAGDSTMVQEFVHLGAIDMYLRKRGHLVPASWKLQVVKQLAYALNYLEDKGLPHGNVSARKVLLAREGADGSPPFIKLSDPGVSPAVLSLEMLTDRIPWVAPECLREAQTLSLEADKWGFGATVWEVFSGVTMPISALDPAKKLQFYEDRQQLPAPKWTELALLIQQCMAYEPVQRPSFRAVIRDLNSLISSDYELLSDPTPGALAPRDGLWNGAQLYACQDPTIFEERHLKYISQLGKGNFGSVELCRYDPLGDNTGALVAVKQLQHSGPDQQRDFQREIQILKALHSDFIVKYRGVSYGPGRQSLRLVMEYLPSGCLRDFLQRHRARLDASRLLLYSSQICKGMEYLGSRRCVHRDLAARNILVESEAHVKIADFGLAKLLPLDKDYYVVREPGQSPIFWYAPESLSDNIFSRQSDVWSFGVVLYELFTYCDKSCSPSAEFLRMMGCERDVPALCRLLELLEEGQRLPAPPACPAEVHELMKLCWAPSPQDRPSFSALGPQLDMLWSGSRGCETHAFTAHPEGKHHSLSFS

[5] = target: Serine/threonine-protein kinase D3 (Homo sapiens, UniProt O94806); type: functional;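 note: determined within a kinase panel screen, with PRKCN as the panel member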
[6] = target: Insulin-like growth factor 1 receptor (Homo sapiens, UniProt P08069); test: Navigating the Kinome. Panel member name: IGF1R; type: functional
[7] = target: Mitogen-activated protein kinase 8 (Homo sapiens, UniProt P45983); type: functional;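 note: value comes from one member of a kinome-wide kinase profiling panel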
[8] = target: ALK tyrosine kinase receptor (Homo sapiens, UniProt Q9UM73); type: functional;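 note: ALK tested as one member of a kinase panel screen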
[9] = target: Glycogen synthase kinase-3 alpha (Homo sapiens, UniProt P49840); type: functional;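 note: GSK3A result taken from a broad kinome-wide kinase panel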
[10] = target: Leukocyte tyrosine kinase receptor (Homo sapiens, UniProt P29376); test: Navigating the Kinome. Panel member name: LTK; type: functional
[11] = target: Dual specificity protein kinase CLK4 (Homo sapiens, UniProt Q9HAZ1); type: functional
Aurora kinase A = Aurora kinase A (Homo sapiens, UniProt O14965); type: functional;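 note: value from the Navigating the Kinome kinase panel profiling, panel entry STK6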
Streptokinase A = target: T3, Streptokinase A (Streptococcus pyogenes serotype M1, UniProt P10520); test: S. pyogenes streptokinase expression inhibitors, potency, dose response, plasminogen activation absorbance, OD405 (AID 1914); type: functional, Streptococcus pyogenes M1 GAS;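 note: secreted streptokinase activity via plasminogen activation per viability signal from cell pellet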
T3 sequence (P10520 whole entry): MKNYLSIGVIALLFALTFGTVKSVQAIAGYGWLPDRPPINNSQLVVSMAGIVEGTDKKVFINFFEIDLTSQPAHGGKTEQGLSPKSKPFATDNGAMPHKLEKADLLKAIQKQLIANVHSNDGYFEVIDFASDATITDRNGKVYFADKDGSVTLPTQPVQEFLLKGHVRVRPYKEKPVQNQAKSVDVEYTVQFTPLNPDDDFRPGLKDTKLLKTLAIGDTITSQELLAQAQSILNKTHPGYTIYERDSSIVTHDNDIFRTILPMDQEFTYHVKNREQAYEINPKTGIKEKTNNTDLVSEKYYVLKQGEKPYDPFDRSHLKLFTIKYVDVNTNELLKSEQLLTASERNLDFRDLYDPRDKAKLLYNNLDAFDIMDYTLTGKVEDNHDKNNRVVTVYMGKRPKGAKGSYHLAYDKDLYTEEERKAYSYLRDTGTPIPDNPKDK

[12] = target: C-C chemokine receptor type 6 (Homo sapiens, UniProt P51684); test: CCR6 receptor antagonists, dose response, cell-based, luminescent beta-arrestin readout (AID 504728); type: functional
Melanocortin receptor 4 = Melanocortin receptor 4 (Homo sapiens, UniProt P32245); test: MC4R antagonist potency on cAMP, dose response, cell-based, TR-FRET, biased antagonists (AID 602298); type: functional;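 note: antagonist potency against agonist-stimulated cAMP production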
[13] = inhibitors of SNCA 5'UTR-driven reporter translation, confirmation, H4 neuroglioma cells, luminescence (AID 1988); type: functional, cell-based

Insulin-like growth factor 1 receptor, sequence (P08069 31-736 limits assumed): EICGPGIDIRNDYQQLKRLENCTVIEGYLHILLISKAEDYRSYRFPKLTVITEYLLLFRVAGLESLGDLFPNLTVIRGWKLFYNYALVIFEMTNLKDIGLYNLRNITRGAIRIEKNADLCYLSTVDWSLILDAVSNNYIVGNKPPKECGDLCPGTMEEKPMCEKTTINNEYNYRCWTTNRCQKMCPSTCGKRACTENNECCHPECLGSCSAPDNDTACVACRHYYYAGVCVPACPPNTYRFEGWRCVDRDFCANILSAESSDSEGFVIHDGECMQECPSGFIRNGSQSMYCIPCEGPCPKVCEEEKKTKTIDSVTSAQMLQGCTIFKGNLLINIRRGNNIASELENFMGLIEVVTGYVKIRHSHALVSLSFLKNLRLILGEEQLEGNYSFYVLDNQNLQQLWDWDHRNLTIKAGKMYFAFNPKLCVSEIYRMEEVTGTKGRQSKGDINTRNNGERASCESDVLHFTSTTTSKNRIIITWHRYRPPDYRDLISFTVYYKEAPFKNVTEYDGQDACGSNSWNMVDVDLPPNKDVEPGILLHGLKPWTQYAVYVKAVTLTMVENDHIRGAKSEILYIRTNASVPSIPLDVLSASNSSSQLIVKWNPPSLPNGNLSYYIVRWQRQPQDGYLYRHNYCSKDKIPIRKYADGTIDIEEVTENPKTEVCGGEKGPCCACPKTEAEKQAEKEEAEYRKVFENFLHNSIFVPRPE
Insulin-like growth factor 1 receptor, sequence (P08069 741-1367 limits assumed): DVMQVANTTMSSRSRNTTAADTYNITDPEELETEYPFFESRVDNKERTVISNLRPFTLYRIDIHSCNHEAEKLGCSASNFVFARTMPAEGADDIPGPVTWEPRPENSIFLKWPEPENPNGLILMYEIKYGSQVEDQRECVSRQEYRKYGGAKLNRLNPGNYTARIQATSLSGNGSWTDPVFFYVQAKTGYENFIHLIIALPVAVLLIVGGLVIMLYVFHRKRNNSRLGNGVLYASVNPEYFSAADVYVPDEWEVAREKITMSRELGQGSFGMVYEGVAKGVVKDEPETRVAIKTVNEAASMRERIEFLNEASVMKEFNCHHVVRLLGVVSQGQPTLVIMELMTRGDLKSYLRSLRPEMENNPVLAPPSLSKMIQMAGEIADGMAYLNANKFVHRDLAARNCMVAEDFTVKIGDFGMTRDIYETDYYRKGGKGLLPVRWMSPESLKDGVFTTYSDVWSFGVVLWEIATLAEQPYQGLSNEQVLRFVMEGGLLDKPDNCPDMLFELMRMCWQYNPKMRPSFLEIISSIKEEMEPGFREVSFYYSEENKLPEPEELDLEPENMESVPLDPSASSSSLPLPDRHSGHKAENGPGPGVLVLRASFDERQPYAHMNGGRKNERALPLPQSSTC
Leukocyte tyrosine kinase receptor, sequence (P29376 whole entry): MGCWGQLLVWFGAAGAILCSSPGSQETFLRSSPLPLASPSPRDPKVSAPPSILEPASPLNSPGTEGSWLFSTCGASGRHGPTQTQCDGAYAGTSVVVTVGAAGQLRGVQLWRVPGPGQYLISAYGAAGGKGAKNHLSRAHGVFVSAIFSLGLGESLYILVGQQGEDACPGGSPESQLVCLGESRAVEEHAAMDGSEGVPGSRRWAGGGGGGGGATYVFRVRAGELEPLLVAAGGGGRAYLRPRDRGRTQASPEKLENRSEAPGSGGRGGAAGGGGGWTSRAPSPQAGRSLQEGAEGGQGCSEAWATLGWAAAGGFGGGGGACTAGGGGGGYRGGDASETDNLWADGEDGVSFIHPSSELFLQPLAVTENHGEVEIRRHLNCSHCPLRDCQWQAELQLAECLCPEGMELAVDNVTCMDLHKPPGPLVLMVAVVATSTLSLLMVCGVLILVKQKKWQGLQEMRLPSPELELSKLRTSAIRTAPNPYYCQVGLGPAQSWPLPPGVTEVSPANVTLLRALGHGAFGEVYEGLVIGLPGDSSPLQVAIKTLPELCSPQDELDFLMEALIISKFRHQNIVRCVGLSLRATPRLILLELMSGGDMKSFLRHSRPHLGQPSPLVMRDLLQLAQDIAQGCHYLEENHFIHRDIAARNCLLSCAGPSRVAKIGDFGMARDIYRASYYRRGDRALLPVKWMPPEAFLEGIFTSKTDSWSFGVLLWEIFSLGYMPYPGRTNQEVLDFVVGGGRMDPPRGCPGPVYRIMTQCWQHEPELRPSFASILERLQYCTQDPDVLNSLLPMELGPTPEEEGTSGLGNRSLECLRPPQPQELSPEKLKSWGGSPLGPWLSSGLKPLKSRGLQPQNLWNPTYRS
C-C chemokine receptor type 6, sequence (P51684 whole entry): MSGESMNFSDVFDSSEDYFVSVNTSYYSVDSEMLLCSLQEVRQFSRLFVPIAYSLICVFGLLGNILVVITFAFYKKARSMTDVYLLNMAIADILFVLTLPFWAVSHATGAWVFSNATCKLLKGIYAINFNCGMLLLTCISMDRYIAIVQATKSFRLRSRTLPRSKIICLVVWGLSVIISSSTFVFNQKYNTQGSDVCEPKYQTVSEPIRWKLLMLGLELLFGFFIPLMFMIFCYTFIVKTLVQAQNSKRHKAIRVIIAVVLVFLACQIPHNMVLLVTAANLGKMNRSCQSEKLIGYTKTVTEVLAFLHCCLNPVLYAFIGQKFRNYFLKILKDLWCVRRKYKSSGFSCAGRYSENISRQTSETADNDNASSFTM
Melanocortin receptor 4, sequence (P32245 whole entry): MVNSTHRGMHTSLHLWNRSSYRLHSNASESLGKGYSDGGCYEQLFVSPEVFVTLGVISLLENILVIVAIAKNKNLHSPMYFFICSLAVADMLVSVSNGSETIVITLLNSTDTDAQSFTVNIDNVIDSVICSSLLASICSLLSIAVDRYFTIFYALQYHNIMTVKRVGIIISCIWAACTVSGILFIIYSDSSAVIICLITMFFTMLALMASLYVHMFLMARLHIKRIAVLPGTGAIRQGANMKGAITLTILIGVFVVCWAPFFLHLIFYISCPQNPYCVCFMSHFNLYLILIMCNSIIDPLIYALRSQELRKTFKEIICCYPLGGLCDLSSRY
Serine/threonine-protein kinase D3, sequence (O94806 whole entry): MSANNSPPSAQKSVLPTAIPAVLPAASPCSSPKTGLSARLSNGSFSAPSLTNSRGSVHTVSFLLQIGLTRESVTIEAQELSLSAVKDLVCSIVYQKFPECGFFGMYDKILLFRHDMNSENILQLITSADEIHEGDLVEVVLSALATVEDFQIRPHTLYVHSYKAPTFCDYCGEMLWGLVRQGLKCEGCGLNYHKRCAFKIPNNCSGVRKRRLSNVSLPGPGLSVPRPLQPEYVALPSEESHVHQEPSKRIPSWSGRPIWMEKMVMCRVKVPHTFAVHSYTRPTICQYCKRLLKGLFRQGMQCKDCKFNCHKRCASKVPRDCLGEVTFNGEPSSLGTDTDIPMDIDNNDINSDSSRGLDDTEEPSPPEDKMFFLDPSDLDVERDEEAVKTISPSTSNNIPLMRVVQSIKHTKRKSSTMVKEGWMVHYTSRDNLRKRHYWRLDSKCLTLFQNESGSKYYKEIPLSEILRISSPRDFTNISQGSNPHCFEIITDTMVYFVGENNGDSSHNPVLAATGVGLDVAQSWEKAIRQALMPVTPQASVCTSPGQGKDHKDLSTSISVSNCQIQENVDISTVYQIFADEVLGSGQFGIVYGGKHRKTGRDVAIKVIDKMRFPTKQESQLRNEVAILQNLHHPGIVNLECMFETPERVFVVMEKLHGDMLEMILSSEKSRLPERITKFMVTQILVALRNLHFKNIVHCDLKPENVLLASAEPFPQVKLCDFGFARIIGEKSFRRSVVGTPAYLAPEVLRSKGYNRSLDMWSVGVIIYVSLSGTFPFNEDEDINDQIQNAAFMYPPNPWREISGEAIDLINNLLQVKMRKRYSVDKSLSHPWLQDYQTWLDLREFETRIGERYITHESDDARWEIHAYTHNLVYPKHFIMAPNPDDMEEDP
Inhibitor of nuclear factor kappa-B kinase subunit epsilon, sequence (Q14164 whole entry, canonical isoform): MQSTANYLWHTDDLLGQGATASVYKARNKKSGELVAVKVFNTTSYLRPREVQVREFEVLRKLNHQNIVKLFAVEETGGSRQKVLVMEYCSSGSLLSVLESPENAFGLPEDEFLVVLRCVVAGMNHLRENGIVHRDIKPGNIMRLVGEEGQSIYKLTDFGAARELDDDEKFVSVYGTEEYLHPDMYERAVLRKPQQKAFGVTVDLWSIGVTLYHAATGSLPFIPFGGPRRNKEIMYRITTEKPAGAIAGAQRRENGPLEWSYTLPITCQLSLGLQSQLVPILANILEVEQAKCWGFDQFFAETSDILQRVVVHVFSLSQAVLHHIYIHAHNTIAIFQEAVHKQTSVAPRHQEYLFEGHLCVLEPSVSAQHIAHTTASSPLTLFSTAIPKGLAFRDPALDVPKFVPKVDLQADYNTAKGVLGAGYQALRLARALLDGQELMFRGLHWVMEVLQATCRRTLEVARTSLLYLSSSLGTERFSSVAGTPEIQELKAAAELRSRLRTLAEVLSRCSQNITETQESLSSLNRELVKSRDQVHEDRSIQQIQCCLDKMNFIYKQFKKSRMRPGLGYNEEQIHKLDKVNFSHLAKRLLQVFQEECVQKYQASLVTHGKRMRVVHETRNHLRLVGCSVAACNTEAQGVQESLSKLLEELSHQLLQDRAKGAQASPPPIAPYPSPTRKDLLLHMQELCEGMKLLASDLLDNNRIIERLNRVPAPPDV
Mitogen-activated protein kinase 8, sequence (P45983 whole entry): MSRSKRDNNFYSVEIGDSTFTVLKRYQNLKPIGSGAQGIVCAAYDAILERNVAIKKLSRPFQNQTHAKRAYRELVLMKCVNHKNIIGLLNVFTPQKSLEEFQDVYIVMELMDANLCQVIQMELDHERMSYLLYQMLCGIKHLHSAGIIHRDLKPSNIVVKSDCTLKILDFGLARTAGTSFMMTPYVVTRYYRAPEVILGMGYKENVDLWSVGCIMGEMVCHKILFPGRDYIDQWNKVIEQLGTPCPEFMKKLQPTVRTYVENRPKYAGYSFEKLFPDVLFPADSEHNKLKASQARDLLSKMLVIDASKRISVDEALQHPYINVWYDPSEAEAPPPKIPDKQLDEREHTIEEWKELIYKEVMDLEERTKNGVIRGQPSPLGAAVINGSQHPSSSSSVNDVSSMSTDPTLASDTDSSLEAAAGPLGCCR

Which IC50 [1] does the source give for `Cc1ccc(NC(=O)COc2cccc(/C=C3\SC(=S)N(CCC(=O)O)C3=O)c2)cc1Cl` here?
The IC50 was > 50 µM (not active).

Which results are given for `COc1cccc(C(C)NC(=O)c2ccc(-c3ccncc3)s2)c1` (stereo unspecified)?
Ki [2]: > 3.16 µM (inactive); Ki [3]: 1.58 µM (active); Ki [4]: > 5.01 µM (inactive); Ki [5]: > 3.98 µM (inactive); Ki [6]: > 2.51 µM (inactive); Ki [7]: > 5.01 µM (inactive); Ki [8]: > 6.31 µM (inactive); Ki [9]: 1 µM (active); Ki [10]: > 2.51 µM (inactive); Ki [11]: 0.316 µM (active); Ki (Aurora kinase A): 0.2 µM (active)

Which EC50 (Streptokinase A) does the source give for `O=Nc1c(-c2c(O)[nH]c3cc(Br)ccc23)[nH]c2ccccc12` here?
Its EC50 is 44.9 µM (active).

What about the IC50 [12] of the same compound?
The IC50 was > 66.6 µM (inactive).

And the IC50 (Melanocortin receptor 4)?
The IC50 was 6.37 µM (active).

And the EC50 [13]?
The EC50 was 9.31 µM (active).
